Results from patent publication US20180200279A1, “INHIBITION OF HSV-1-ASSOCIATED CORNEAL NEOVASCULARIZATION USING INHIBITORS OF CYCLIN-DEPENDENT KINASE 9” (XAVIER UNIVERSITY OF LOUISIANA, priority 2014, published 2018).
pIC50: −log10 of the molar value.

How the values were obtained:
HSV-1 17syn+ = experiment: Real-time PCR of HSV-1 DNA on ocular swabs of infected mice; type: in vivo, Balb/c mice; details: day 25 post infection; 1% TFT, 0.01% flavopiridol, 0.1% DRB drops; n=10
Protocol: SYBR Green semi-quantitative real-time PCR was performed on DNA samples eluted from swabs taken from mouse eyes on days 2, 4, 7, 9, 11, 14, 18 and 25 post infection with 5×10^5 PFU/eye HSV-1 17syn+ using primers specific for HSV-1 DNA polymerase.
All experimental procedures were performed in accordance with the ARVO Resolution for the Use of Animals in Ophthalmic and Vision Research and were approved by the Xavier University Animal Care and Use Committee. Female 20 g Balb/c mice were obtained from Charles River Laboratories. Mice were allowed to equilibrate to their surroundings for 2 weeks and then were anesthetized by intramuscular administration of xylazine (6.6 mg/kg of body weight) and ketamine (100 mg/kg of body weight). The corneas were mildly scarified in a 2×2 cross-hatch pattern and each cornea was inoculated with 5×10^5 PFU of strain HSV 17syn+. […] DNA was collected by swabbing the eyes with filter paper, and the eyes were examined with a slit-lamp on PI days 2, 4, 7, 9, 11, 14, 18 and 25. Average neovascularization/eye was scored using the formula A=(C×0.4×L×π)/2 where C=clock hours of neovascularization; 30° arc is 1 (360° circle with a total of 12); L is the length of the longest neovessel, and A is the area of neovascularization. Students scored (by eye) the animals on the days indicated in a masked fashion using the slit-lamp, and images representative of each group were taken. Clinical scores based on epiphora, inflammation and discharge were calculated where 0=no manifestations, +1=slight manifestations, +2=moderate manifestations, and +3=severe manifestations. […] Ex ovo chick embryo chorioallantoic membrane collagen angiogenesis assays were performed using methods as previously described (Deryugina E I and Quigley J P. Chapter 2. Chick embryo chorioallantoic membrane models to quantify angiogenesis induced by inflammatory and tumor cells or purified effector molecules. Methods Enzymol. 444:21-41. 2008). […]

global transcription = details: low-dose FP; Lu et al. Mol Cancer Ther (2004); cited from earlier work
[1] = tested on: corneal neovascularization due to alkali burn; experiment: Corneal neovascularization due to chemical (NaOH) burn in mice; type: in vivo, Balb C mice; details: 0.01% FP 5× daily; four days post injury; 0.15N NaOH for 15 seconds
Protocol: Following chemical treatment of mouse eyes with 0.15N NaOH, control and treated eyes were scored for neovascularization using the formula A=(C×0.4×L×pi)/2; where C=clock hours of neovascularization; 30° arc is 1 (360° L is the length of the longest neovessel, and A is the area of neovascularization. Animals were scored using a slit-lamp microscope, and images representative of each group were taken. One day post injury, flavopirodol reduced neovascularization to the level observed in undamaged and in damaged but prednisone-treated eyes.
To determine whether FP would reduce corneal neovascularization due to chemical injury in a mouse model system, female Balb C mice (7 per group) were treated in their right eyes with 0.15N NaOH for 15 seconds and the left eye was not treated with NaOH. […] Neovascularization was scored using the formula A=(C×0.4×L×pi)/2; where C=clock hours of neovascularization; 30° arc is 1 (360° L is the length of the longest neovessel, and A is the area of neovascularization. Animals were scored in a masked fashion using a slit-lamp microscope, and images representative of each group were taken. The longest possible length of a neovessel is 1.6 mm and the greatest possible arc is 12/12 hours.

HSV-1 = experiment: In vitro viral inhibition (plaque) assay in CV-1 cells; type: cell-based
Protocol: Numbers of plaque-forming units (PFU) were determined in a standard plaque assay procedure using CV-1 cells.
The HSV-1 strain employed was 17 syn+. Before inoculation, numbers of plaque-forming units (PFU) were determined in a standard plaque assay procedure using CV-1 cells. Pooled primary human umbilical vein endothelial cells (HUVEC) were obtained from Lonza (Basel, Switzerland) and were cultured in Medium 199 (Life Technologies, Carlsbad, Calif.) supplemented with 20% heat-inactivated FBS, penicillin G (100 U/ml), streptomycin ([…]), 2 mM L-glutamine and 1:100 endothelial cell growth supplement (ECGS, BD Biosciences, Bedford, Mass.) on tissue culture plates coated with 0.2% gelatin up to passage 6. Cells were sub-passaged or harvested when they reached ˜80% confluence. For periods of serum-deprivation, HUVEC were incubated for 4 or 16 hours in serum-starvation medium (SSM) containing Medium 199 without phenol red or ECGS but containing 0.5% FBS unless otherwise indicated. In vitro viral inhibition assays with CV-1 cells were performed as previously described (Gong E Y. Methods for screening and profiling inhibitors of herpes simplex viruses. Methods Mol Biol. 1030:303-313. 2013).

## CN1CC[C@H](c2c(O)cc(O)c3c(=O)cc(-c4ccccc4Cl)oc23)[C@H](O)C1 [flavopiridol]
HSV-1 17syn+
  quantitative real-time PCR score (HSV-1 DNA) on ocular swabs: 0.039±0.176
Global transcription
  block of global transcription: does not block global transcription
[1]
  corneal neovascularization after alkali burn (slit-lamp area score): reduced neovascularization due to alkali burn to the level observed in undamaged and in damaged but prednisone-treated eyes
HSV-1
  concentration at which HSV-1 replication was significantly inhibited: 250 nM
HSV-1; Human alphaherpesvirus 1, read-out: average IC50 of HSV-1 replication
  pIC50: 7.00
